Paper PMC11050599, “Novel Tetracyclic Azaphenothiazines with the Quinoline Ring as New Anticancer and Antibacterial Derivatives of Chlorpromazine” (International Journal of Molecular Sciences, 2024)
Converted amounts (≈) assume the structure as drawn.

Assays:
[1] = system: MDA-MB-231 (breast cancer); experiment: MTT assay, MDA-MB-231 cells; format: cell-based, human
How it was run: (§1)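 Cells seeded at 1 × 10^4 per well were exposed to compounds for 72 h; media: MEM for HCT116, DMEM High Glucose for MDA-MB-231 and HaCaT, RPMI for PC3, each with 10% FBS and 20 mM HEPES. Viability given as MTT reduction relative to medium-only control.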

[2] = system: cancer cell lines; experiment: MTT assay, summary over several cell lines; format: cell-based, human; conditions: Homo sapiens, read-out: IC50 range toward four cancerous cell lines
Procedure: (§2) The human cell lines, such as A549 (lung cancer), MDA-MB-231 (breast cancer), MiaPaca-2 (pancreatic cancer), PC3 (metastatic prostate cancer), HCT-116 (colon carcinoma), and HaCaT (immortalized keratinocytes), were sourced from the American Type Culture Collection (ATCC) in Rockville, USA. Culturing conditions varied as follows: HCT116 cells were cultured in MEM (ThermoSci, Waltham, MA, USA), A549, MDA-MB-231, MiaPaca, HaCaT cells in DMEM High Glucose and PC3 cells were cultured in RPMI (Biowest SAS, Nuaillé, France). The growth medium consisted of 10% fetal bovine serum (FBS, Sigma-Aldrich, St. Louis, MO, USA), 20 mM HEPES (Biowest, Nuaillé, France), and antibiotics (100 U/mL of penicillin and 100 μg/mL of streptomycin) from Gibco, Grand Island, NY, USA. […] These compounds were added to 96-well plates containing study cells (1 × 10^4 cells per well) and incubated for 72 h. […] Cell absorbance results were incorporated into the formula for calculating the relative MTT level (%), enabling the assessment of cell viability following exposure to the test compounds. The cell viability percentage represents the MTT reduction in cells treated with the test compounds compared to the control sample, where only the medium was added to the cells.

[3] = system: A549 cells; experiment: Annexin V-FITC/PI apoptosis flow cytometry, A549; format: cell-based, human; conditions: representative dot plot, Figure 4A, IC50, 72 h
Procedure: (§3) To analyze the number of cells in early apoptosis, late apoptosis, or necrosis, A549, MiaPaca-2, and HCT-116 cell lines were cultured in 6-well plates with a seeding density of 1 × 10^5 cells per well. These cells were then treated with selected compounds (4, 5, and 8) at their respective IC50 concentrations and incubated for 72 h. Subsequently, a commercially available kit, the FITC: Annexin V Apoptosis Detection Kit I from BD Biosciences Pharmingen in San Jose, CA, USA, was utilized to assess apoptosis. After 72 h the cells were harvested, washed, and labeled with Annexin V-FITC and propidium iodide (PI) following the manufacturer’s protocol (Becton Dickinson), as previously described. The stained cells were analyzed by flow cytometry. The cells were identified as early apoptotic (Annexin V+/PI−) or late apoptotic/necrotic (Annexin V+/PI+).

[4] = system: HCT116 cells; experiment: Annexin V-FITC/PI apoptosis flow cytometry, HCT116; format: cell-based, human; conditions: representative dot plot, Figure 4C, IC50, 72 h
Procedure: as §3

[5] = system: A549 (lung cancer); experiment: MTT assay, A549 cells; format: cell-based, human; conditions: Homo sapiens, A549, 72 h, read-out: IC50 A549
How it was run: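 After a 72 h incubation of 1 × 10^4 cells per well with compound, absorbance from MTT reduction was converted to percent of the medium-only control.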

[6] = system: A549 cells; experiment: Cell cycle analysis by flow cytometry, A549; format: cell-based, human; conditions: compound at IC50, 24 h
Procedure: (§4) In brief, cells were seeded at a density of 1 × 10^5 cells/well on a six-well plate and allowed to adhere for 24 h. […] Both population cells (the attached and detached) were collected and centrifuged at 400× g for 5 min at 4 °C. After centrifugation, the cells were washed twice with 0.9% NaCl and subsequently fixed in 500 μL of 70 % cold ethanol overnight.
(§5) Before analysis, the fixed cells underwent another centrifugation step at 850× g for 5 min at 4 °C and were washed with PBS. Following the washes, the cells were incubated with 50 μL of RNase (100 μg/mL) and 200 μL of propidium iodide (PI) (50 μg/mL) at 37 °C for 30 min in the dark. Finally, 100 μL of PBS was added to each sample. Flow cytometry (Becton Dickinson FACS Verse, Franklin Lakes, NJ, USA) was then used to analyze the cell cycle distribution, identifying cells in various stages including sub-G1, G0/G1, S, and G2/M phases. Each assay was performed in quadruplicate.

[7] = system: MiaPaCa-2 cells; experiment: Annexin V-FITC/PI apoptosis flow cytometry, MiaPaCa-2; format: cell-based, human; conditions: representative dot plot, Figure 4B, IC50, 72 h
Procedure: as §3

[8] = system: MiaPaCa-2 (pancreas cancer); experiment: MTT assay, MiaPaCa-2 cells; format: cell-based, human
Procedure: as §2

[9] = system: HaCaT (immortalized human keratinocytes); experiment: MTT assay, HaCaT normal cells; format: cell-based; conditions: Homo sapiens, HaCaT, 72 h, read-out: IC50 HaCaT (Table 3)
How it was run: as §1

[10] = system: HCT116 cells; experiment: Cell cycle analysis by flow cytometry, HCT116; format: cell-based, human; conditions: IC50, 24 h, compared to the control
Procedure: as §4, §5

[11] = system: HCT116 (colon cancer); experiment: MTT assay, HCT116 cells; format: cell-based, human
Procedure: as §2

[12] = system: PC3 (prostate cancer); experiment: MTT assay, PC3 cells; format: cell-based, human
Procedure: as §2

[13] = system: S. aureus ATCC 6538; experiment: MIC broth microdilution; format: cell-based; conditions: Staphylococcus aureus, ATCC6538, 19 h, read-out: MIC S. aureus ATCC 6538
How it was run: (§6)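 Two-fold serial broth microdilution in Mueller-Hinton II broth, final inoculum adjusted to […]. Compounds dissolved in DMSO, final solvent at most 1%.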

[14] = system: S. epidermidis ATCC 35984; experiment: MIC broth microdilution; format: cell-based; conditions: Staphylococcus epidermidis, ATCC35984, 19 h, read-out: MIC S. epidermidis ATCC 35984
How it was run: as §6

[15] = system: S. aureus NCTC 4163; experiment: MIC broth microdilution; format: cell-based; conditions: Staphylococcus aureus, NCTC4163, 19 h, read-out: MIC S. aureus NCTC 4163
How it was run: as §6

[16] = system: S. epidermidis ATCC 12228; experiment: MIC broth microdilution; format: cell-based; conditions: Staphylococcus epidermidis, ATCC12228, 19 h, read-out: MIC S. epidermidis ATCC 12228
How it was run: as §6

[17] = system: S. aureus ATCC 29213; experiment: MIC broth microdilution; format: cell-based; conditions: Staphylococcus aureus, ATCC29213, 19 h, read-out: MIC S. aureus ATCC 29213
How it was run: as §6

[18] = system: E. coli ATCC 25922; experiment: MIC broth microdilution; format: cell-based
How it was run: as §6

[19] = system: P. aeruginosa ATCC 15442; experiment: MIC broth microdilution; format: cell-based; conditions: Pseudomonas aeruginosa, ATCC15442, 19 h, read-out: MIC P. aeruginosa ATCC 15442
How it was run: as §6

[20] = system: S. aureus ATCC 25923; experiment: MIC broth microdilution; format: cell-based; conditions: Staphylococcus aureus, ATCC25923, 19 h, read-out: MIC S. aureus ATCC 25923
How it was run: as §6

[21] = SI = IC50 for normal cell line (HaCaT)/IC50 cancer cell line

O=C(NCCCl)NCCCCN1c2cc(Cl)ccc2Sc2cc3ccccc3nc21 [Compound 21, 1-(4-(8-Chloroquino[3,2-b]benzo[1,4]thiazin-6-yl)butyl)-3-(2-chloroethyl)urea]
IC50 ([1]; Homo sapiens, MDA-MB-231, 72 h, read-out: IC50 MDA): 7.4 ± 1.2 µM
SI MDA [1, 21]: 0.15
IC50 [2]: 6.4 to 11.3 µM
A549: Alive [3]: 3.27%
A549: Early Apoptotic [3]: 1.31%
A549: Necrotic [3]: 15.90%
A549: Necrotic/Late Apoptotic [3]: 79.52%
HCT-116: Alive [4]: 17.91%
HCT-116: Early Apoptotic [4]: 1.71%
HCT-116: Necrotic [4]: 5.16%
HCT-116: Necrotic/Late Apoptotic [4]: 75.22%
IC50 [5]: 6.98 ± 1.2 µM
percentage of Sub G1 phase A549 cells [6]: 27.6%
MiaPaca: Alive [7]: 8.66%
MiaPaca: Early Apoptotic [7]: 2.45%
MiaPaca: Necrotic [7]: 37.47%
MiaPaca: Necrotic/Late Apoptotic [7]: 51.42%
IC50 ([8]; Homo sapiens, MIA PaCa-2, 72 h, read-out: IC50 MiaPaCa-2): 6.4 ± 2.4 µM
SI MiaPaCa-2 [8, 21]: 0.2
IC50 [9]: 1.1 ± 0.3 µM
increase in the cell amount at the sub-G1 phase, HCT116 [10]: 12 fold
increase in the number of cells in the G2/M phase, HCT116 [10]: approximately 1.3 fold
increase in the number of cells in the S phase, HCT116 [10]: approximately 2 fold
IC50 ([11]; Homo sapiens, HCT-116, 72 h, read-out: IC50 HCT116): 11.3 ± 2.2 µM
SI HCT116 [11, 21]: 0.1
IC50 ([12]; Homo sapiens, PC-3, 72 h, read-out: IC50 PC3): 76.6 ± 9.8 µM
SI PC3 [12, 21]: 0.1
MIC [13]: 2 µg/mL (≈ 4.33 µM)
MIC [14]: 2 µg/mL (≈ 4.33 µM)
MIC [15]: 2 µg/mL (≈ 4.33 µM)
MIC [16]: 2 µg/mL (≈ 4.33 µM)
MIC [17]: 2 µg/mL (≈ 4.33 µM)
MIC E. coli ATCC 25922 ([18]; 19 h, 35 °C): 8 µg/mL (≈ 17.3 µM)
MIC ([18]; Escherichia coli, ATCC25922, 19 h, read-out: MIC E. coli ATCC 25922): 8 µg/mL (≈ 17.3 µM)
MIC [19]: > 256 µg/mL
MIC [20]: 2 µg/mL (≈ 4.33 µM)
